Assay results from patent US5281596A, “Antibacterial drugs for fish” (Bayer Aktiengesellschaft, priority 1986, dated 1994).
≈ marks a conversion by molar mass, not a printed value. Structures can show the parent of a compound that is named as a salt.

Experiments:
Test in all cases: In vitro antibacterial activity on pathogenic bacteria for fish (agar MIC, Test Example 1)
Assay type in all cases: cell-based
Pasteurella piscicida = conditions: 20 h; for MIC (minimum growth-inhibition concentration): Mueller-Hinton agar, 25-30 °C
Protocol: (§1) In vitro antibacterial activity on pathogenic-bacteria for fish
(§2) Each of the test strains was cultured over-night, and each culture broth (containing about 10^6 cells/ml) was innoculated in Mueller-Hinton agar (DIFCO) supplied with 1.0-2.0% sodium chloride and containing the test compound at each specified concentration.

Vibrio anguillarum = conditions: Mueller-Hinton agar, 20 h, 25-30 °C
Protocol: as §1, §2

Aeromonas hydrophila = conditions: Mueller-Hinton agar, 20 h, 25-30 °C
Protocol: as §1, §2

[1] = Pasteurella piscicida strain EH8304
[2] = Pasteurella piscicida strain EH8309
[3] = Pasteurella piscicida strain EH8312
[4] = Pasteurella piscicida strain NG8319
[5] = Vibrio anguillarum strain NA8340
[6] = Vibrio anguillarum strain NA8341
[7] = Vibrio anguillarum strain NA8346
[8] = Vibrio anguillarum strain NA8347
[9] = Vibrio anguillarum strain NH8410
[10] = Aeromonas hydrophila strain C 44
[11] = Aeromonas hydrophila strain KA8301
[12] = Aeromonas hydrophila strain KA8414
[13] = Aeromonas hydrophila strain KA8416
[14] = Aeromonas hydrophila strain M 183
[15] = Pasteurella piscicida strain EH8313

Q: With `O=C(O)c1cn(C2CC2)c2cc(N3CCNCC3)c(F)cc2c1=O` [Compound B, monohydrate of hydrochloride of 1-cyclopropyl-6-fluoro-1,4-dihydro-4-oxo-7-piperazino-quinoline-3-carboxylic acid] as the compound, how does the “MIC (minimum growth-inhibition concentration)” value (Pasteurella piscicida; [1]) read?
A: Its value is 0.025 µg/mL.

Q: What about the “MIC (minimum growth-inhibition concentration)” value (Pasteurella piscicida; [2]) of the same compound?
A: The value was under 0.0125 µg/mL.

Q: And the “MIC (minimum growth-inhibition concentration)” value (Pasteurella piscicida; [3])?
A: The value was 0.025 µg/mL.

Q: And the “MIC (minimum growth-inhibition concentration)” value (Pasteurella piscicida; [4])?
A: The value was 0.025 µg/mL.

Q: What about the MIC (Pasteurella piscicida; Photobacterium damselae, read-out: MIC (minimum growth-inhibition concentration), Pasteurella piscicida strain EH8313, Mueller-Hinton agar, 25-30 °C) of the same compound?
A: The MIC was 0.025 µg/mL.

Q: What about the “MIC (minimum growth-inhibition concentration)” value (Vibrio anguillarum; [5]) of the same compound?
A: Its value is 0.025 µg/mL.

Q: What about the “MIC (minimum growth-inhibition concentration)” value (Vibrio anguillarum; [6]) of the same compound?
A: The value was 0.025 µg/mL.

Q: And the “MIC (minimum growth-inhibition concentration)” value (Vibrio anguillarum; [7])?
A: Its value is 0.025 µg/mL.

Q: What about the “MIC (minimum growth-inhibition concentration)” value (Vibrio anguillarum; [8]) of the same compound?
A: The value was 0.025 µg/mL.

Q: What about the “MIC (minimum growth-inhibition concentration)” value (Vibrio anguillarum; [9]) of the same compound?
A: The value was 0.025 µg/mL.

Q: What about the “MIC (minimum growth-inhibition concentration)” value (Aeromonas hydrophila; [10]) of the same compound?
A: Its value is under 0.0125 µg/mL.

Q: What about the “MIC (minimum growth-inhibition concentration)” value (Aeromonas hydrophila; [11]) of the same compound?
A: The value was under 0.0125 µg/mL.

Q: What about the “MIC (minimum growth-inhibition concentration)” value (Aeromonas hydrophila; [12]) of the same compound?
A: Its value is under 0.0125 µg/mL.

Q: And the “MIC (minimum growth-inhibition concentration)” value (Aeromonas hydrophila; [13])?
A: Its value is under 0.0125 µg/mL.

Q: And the “MIC (minimum growth-inhibition concentration)” value (Aeromonas hydrophila; [14])?
A: The value was under 0.0125 µg/mL.

Q: Which results are given for `CCN1CCN(c2cc3c(cc2F)c(=O)c(C(=O)O)cn3C2CC2)CC1` [Compound E, dihydrate of hydrochloride of 1-cyclopropyl-6-fluoro-1,4-dihydro-4-oxo-7-(4-ethylpiperazino)-quinoline-3-carboxylic acid]?
A: MIC (minimum growth-inhibition concentration) (Pasteurella piscicida; [1]): 0.05 µg/mL; MIC (minimum growth-inhibition concentration) (Pasteurella piscicida; [2]): 0.05 µg/mL; MIC (minimum growth-inhibition concentration) (Pasteurella piscicida; [3]): 0.05 µg/mL; MIC (minimum growth-inhibition concentration) (Pasteurella piscicida; [15]): 0.05 µg/mL; MIC (minimum growth-inhibition concentration) (Pasteurella piscicida; [4]): 0.05 µg/mL; MIC (minimum growth-inhibition concentration) (Vibrio anguillarum; [5]): 0.05 µg/mL; MIC (minimum growth-inhibition concentration) (Vibrio anguillarum; [6]): 0.05 µg/mL; MIC (minimum growth-inhibition concentration) (Vibrio anguillarum; [7]): 0.05 µg/mL; MIC (minimum growth-inhibition concentration) (Vibrio anguillarum; [8]): 0.05 µg/mL; MIC (minimum growth-inhibition concentration) (Vibrio anguillarum; [9]): 0.05 µg/mL; MIC (minimum growth-inhibition concentration) (Aeromonas hydrophila; [10]): < 0.025 µg/mL; MIC (minimum growth-inhibition concentration) (Aeromonas hydrophila; [11]): 0.05 µg/mL; MIC (minimum growth-inhibition concentration) (Aeromonas hydrophila; [12]): < 0.025 µg/mL; MIC (minimum growth-inhibition concentration) (Aeromonas hydrophila; [13]): < 0.025 µg/mL; MIC (minimum growth-inhibition concentration) (Aeromonas hydrophila; [14]): < 0.025 µg/mL

Q: `CCN1CCN(c2cc3c(cc2F)c(=O)c(C(=O)O)cn3C2CC2)CC1` [Compound G, embonate of 1-cyclopropyl-6-fluoro-1,4-dihydro-4-oxo-7-(4-ethylpiperazino)-quinoline-3-carboxylic acid] was tested. Which “MIC (minimum growth-inhibition concentration)” value (Pasteurella piscicida; [1]) did it give?
A: The value was 0.1 µg/mL (≈ 0.278 µM).

Q: What about the “MIC (minimum growth-inhibition concentration)” value (Pasteurella piscicida; [2]) of the same compound?
A: Its value is 0.1 µg/mL (≈ 0.278 µM).

Q: What about the “MIC (minimum growth-inhibition concentration)” value (Pasteurella piscicida; [3]) of the same compound?
A: Its value is 0.05 µg/mL (≈ 0.139 µM).

Q: What about the “MIC (minimum growth-inhibition concentration)” value (Pasteurella piscicida; [15]) of the same compound?
A: Its value is 0.05 µg/mL (≈ 0.139 µM).

Q: What about the “MIC (minimum growth-inhibition concentration)” value (Pasteurella piscicida; [4]) of the same compound?
A: Its value is 0.01 µg/mL (≈ 0.0278 µM).

Q: And the “MIC (minimum growth-inhibition concentration)” value (Vibrio anguillarum; [5])?
A: The value was 0.05 µg/mL (≈ 0.139 µM).

Q: What about the “MIC (minimum growth-inhibition concentration)” value (Vibrio anguillarum; [6]) of the same compound?
A: Its value is 0.05 µg/mL (≈ 0.139 µM).

Q: And the “MIC (minimum growth-inhibition concentration)” value (Vibrio anguillarum; [7])?
A: The value was 0.05 µg/mL (≈ 0.139 µM).

Q: And the “MIC (minimum growth-inhibition concentration)” value (Vibrio anguillarum; [8])?
A: The value was 0.05 µg/mL (≈ 0.139 µM).

Q: And the “MIC (minimum growth-inhibition concentration)” value (Vibrio anguillarum; [9])?
A: The value was 0.05 µg/mL (≈ 0.139 µM).

Q: And the “MIC (minimum growth-inhibition concentration)” value (Aeromonas hydrophila; [10])?
A: The value was 0.05 µg/mL (≈ 0.139 µM).

Q: And the “MIC (minimum growth-inhibition concentration)” value (Aeromonas hydrophila; [11])?
A: Its value is 0.05 µg/mL (≈ 0.139 µM).

Q: What about the “MIC (minimum growth-inhibition concentration)” value (Aeromonas hydrophila; [12]) of the same compound?
A: The value was 0.05 µg/mL (≈ 0.139 µM).

Q: And the “MIC (minimum growth-inhibition concentration)” value (Aeromonas hydrophila; [13])?
A: Its value is 0.05 µg/mL (≈ 0.139 µM).

Q: And the “MIC (minimum growth-inhibition concentration)” value (Aeromonas hydrophila; [14])?
A: Its value is 0.05 µg/mL (≈ 0.139 µM).
